The values that follow come from US7537765B2, “Inhibition of HIV-1 replication by disruption of the processing of the viral capsid-spacer peptide 1 protein” (priority 2003, dated 2009).

For one series, the system named is SIVmac251. Briefly: Gag processing (western blot) in chronically infected H9/SIVmac251 cells. It counts as cell-based, SIV. How it is done:
FIG. 2. […] Gag proteins were visualized using HIV-Ig (HIV-1) or monkey anti-SIVmac251 serum (HIV-2 and SIV; NIH AIDS Research and Reference Reagent Program).
In order to better define DSB's mechanism of action, a detailed examination was undertaken of the virus produced from HIV-1-infected cell lines treated with DSB. Briefly, H9 cells chronically infected with the HIV-1IIIB isolate were treated with DSB at 1 μg/mL for a period of 48 hrs. Indinavir was used as a control. At the 48 hr time-point, spent media was removed and fresh media containing compound was added. At 24, 48 and 72 hrs post fresh compound addition, both cells and supernatant were recovered for analysis. The level of virus in the culture supernatant was determined and western blots were used to characterize viral protein production in both cell-associated and cell-free virus. […] This defect took the form of an additional band in the western blots corresponding to p25 (FIG. 2). This p25 band results from the incomplete processing of the capsid CA-SP1 precursor. […] As discussed above, mutations at the p25 to p24 cleavage site that prevent processing are associated with defects in viral maturation and infectivity (Wiegers K. et al., J. Virol. 72:2846-54 (1998)).

In another series the test system is PHA-stimulated PBMC. Briefly: Toxicity in PHA-stimulated PBMC, XTT method. It counts as cell-based. Particulars: 7 days. How it is done:
Toxicity of DSB was analyzed by incubating with PHA-stimulated PBMC for 7 days at a range of concentrations, then determining cell viability using the XTT method. The 50% cytotoxic concentration was >30 μM, corresponding to an in vitro therapeutic index of approximately 5000.

In series [1] the test system is DSB-resistant HIV-1 viruses. Briefly: Western blot of CA-SP1 cleavage in drug-resistant viruses. The settings on record: drug-resistant viruses in the presence of DSB. It counts as cell-based. As to the method: To determine if the resistant viruses were able to escape the CA-SP1 cleavage defect caused by DSB in wild-type virus, stocks of each virus grown in either the presence or absence of drug were analyzed by Western blot. Virus was pelleted through a 20% sucrose cushion from filtered culture supernatants that were collected 60 hr post-infection and 18 hr after the cells had been washed and fresh drug added. The viruses were lysed, and the amount of each virus was normalized by quantitating p24 levels in each sample.

In series [2] the target is T1, HIV-1 protease (Human immunodeficiency virus type 1 group M subtype B, UniProt P12497). As to the kind of experiment: Cell-free fluorometric protease assay, synthetic peptide substrate. It counts as biochemical. More on the design: DSB had no effect on HIV-1 protease function using a cell-free fluorometric assay. Particulars: concentrations up to 50 μg/mL. As to the method: It was previously determined that DSB had no effect on HIV-1 protease function using a cell-free fluorometric assay that characterized enzyme activity by following the cleavage of a synthetic peptide substrate. […] As a result of the observation that DSB blocks virus replication at a late step, studies were also performed using a recombinant form of the Gag protein, which is a more relevant system than the synthetic peptide substrate used in the initial assays.

In series [3] the test system is NL4-3 A366V/G357S double mutant. Briefly: Virus replication assay of re-engineered NL4-3 mutants in Jurkat T cells (reverse transcriptase activity). It counts as cell-based, HIV-1. As to the method:
In order to more extensively map the viral genetic determinants for DSB resistance, additional experiments were performed to select for viruses in vitro that are drug resistant. Multiple parallel cultures of Jurkat T cells (5×10^5 each) were transfected with the proviral DNA clone pNL4-3 in the presence or absence of 10-50 ng/ml DSB. The cells were passaged every two days, and fresh drug was added at each passage. Virus replication was monitored by measuring reverse transcriptase activity in culture supernatants. Virus was isolated from culture supernatants harvested at selected timepoints, and genomic DNA was amplified by RT-PCR using primers that spanned the coding region between the N-terminus of CA and the N-terminus of RT. The amplified product was then sequenced using the same set of primers.
In one experiment, an A366V mutation was identified in the SP1 region of NL4-3 virus cultured in the presence of DSB (note: numbering is relative to the Gag polyprotein). Upon further passaging, a double mutant was identified that contained a G357S mutation in CA as well as the A366V mutation in SP1. The A366V mutation was identified previously in experiments selecting for resistant variants of the RF isolate. […] Since serine is present at this position in isolates (such as RF) that are sensitive to DSB, the CA G357S mutation alone is not sufficient to confer resistance to DSB. […]

Series [4] deals with primary Clade B HIV-1 isolates. As to the kind of experiment: Virus inhibition assay, primary HIV-1 isolates in PBMC, p24 endpoint. It counts as cell-based. How it is done:
A robust virus inhibition assay was used to evaluate the anti-viral activity of DSB against primary HIV-1 isolates propagated in PMBC. Briefly, serial dilutions of DSB were made in medium into 96-well tissue culture plates. 25-250 TCID50 of virus and 5×10^5 PHA-stimulated PBMCs were added to each well. On days 1, 3 and 5 post-infection, media was removed from each well and replaced with fresh media containing DSB at the appropriate concentration. On day 7 post-infection, culture supernatant was removed from each well for p24 detection of virus replication and 50% inhibitory concentrations (IC50) were calculated by standard methods.

The test system of series [5] is HIV-1 infectious molecular clone pNL4-3. Briefly: EM analysis of HeLa cells transfected with pNL4-3. It counts as cell-based. The settings on record: DSB-treated samples. The text has this:
FIG. 3. EM analysis of DSB-treated HIV-1 infected cells. […] Virions generated in the presence of DSB are characterized by an absence of conical, mature cores. In these samples the cores are uniformly spherical and often acentric. Secondly, many virions display an electron dense layer inside the lipid bilayer but outside the core (indicated with arrows in the DSB-treated sample panels).
HeLa cells were transfected with HIV-1 infectious molecular clone pNL4-3 and treated as described previously with DSB. Following treatment, DSB-treated infected cells were fixed in glutaraldehyde and analyzed by EM.

The target in series [6] is T1, HIV-1 protease. It counts as biochemical. The settings on record: recombinant Gag, 50 μg/mL.

“Also recorded” adds a separate entry of the source. Where two headings read alike, the source gives them in different places.

For orientation: IC50 means the concentration at which inhibition is half-maximal. In the case of `C=C(C)[C@@H]1CC[C@]2(C(=O)O)CC[C@]3(C)[C@H](CC[C@@H]4[C@@]5(C)CC[C@H](OC(=O)CC(C)(C)C(=O)O)C(C)(C)[C@@H]5CC[C@]43C)[C@@H]12` [DSB, 3-O-(3′,3′-dimethylsuccinyl)betulinic acid], the antiviral activity result with SIVmac251 (SIV) is given as “lack of antiviral activity”. Besides, the Gag processing entry in the series on SIVmac251 (SIV chronically infected cell line, 1 μg/mL) is on record as “normal Gag processing”. Also, the 50% cytotoxic concentration in the series with PHA-stimulated PBMC is > 30 µM. The “CA-SP1 product in virus (Western blot)” value in series [1] is listed as “did not contain the CA-SP1 product”. In addition, at HIV-1 protease [2], the “effect on HIV-1 protease function” value was “no effect on protease function”. Besides, the virus replication result in series [3] was “replicated efficiently in the absence or presence of DSB”. Moreover, the half-maximal inhibitory concentration (IC50) came out at 9.8 nM in series [4] (isolate 92HT599, co-receptor X4, PBMC, p24 day 7, read-out: IC50); 4.6 nM in series [4] (isolate 92US723, co-receptor R5/X4, PBMC, p24 day 7, read-out: IC50); 12 nM in series [4] (isolate 3401N*, co-receptor R5/X4, PBMC, p24 day 7, read-out: IC50); 3.8 nM in series [4] (isolate 19101N*, co-receptor R5, PBMC, p24 day 7, read-out: IC50); 2.6 nM in series [4] (isolate 22101N*, co-receptor R5/X4, PBMC, p24 day 7, read-out: IC50); 4 nM in series [4] (isolate BZ167, co-receptor X4, PBMC, p24 day 7, read-out: IC50). The half-maximal inhibitory concentration (IC50) in series [4] (isolate US1, co-receptor R5, PBMC, p24 day 7, read-out: IC50) turned out to be 5.6 nM; in series [4] (mean over the panel of primary isolates, read-out: IC50, Mean) it was 6.1 nM. Moreover, in series [5], the “virion morphology by EM” value was “no mature viral particles were observed”. Moreover, the “effect on protease-mediated Gag protein processing” value at HIV-1 protease [6] is listed as “did not disrupt protease-mediated Gag protein processing; also recorded: does not disrupt the activity of HIV-1 protease”.
